The values below come from PMC4621912, “Anticancer activity of MPT0G157, a derivative of indolylbenzenesulfonamide, inhibits tumor growth and angiogenesis” (Oncotarget, 2015).

The subject of data set [1] is HDAC (HeLa nuclear extract). Details: method as in PMID 25113875. The settings on record: cited from earlier work.
The test system of data set [2] is A549 cells. Kind of data set: SRB cell proliferation assay, A549. It counts as cell-based. Particulars: Homo sapiens, read-out: GI50, A549. The method, then: (§1) Results are shown as mean ± SEM from three independent experiments. […] Cells (1 × 10^4) in 100 μL of medium in 96-well plates were incubated with vehicle (control) or vehicle with test compound for 12 or 24 h. After various treatments, 1 mg/mL of MTT was added and the plates were incubated at 37°C for an additional 2 h, then the cells were pelleted and lysed in 100 μL of dimethyl sulfoxide, and the absorbance at 550 nm was measured on a microplate reader. Cell proliferation was measured by the SRB assay. Cells (1 × 10^4) were incubated for 48 h with the indicated concentrations of test compounds, then were fixed with 10% trichloroacetic acid, stained for 30 min with SRB (0.4% in 1% acetic acid), and washed repeatedly with 1% acetic acid. Protein-bound dye was dissolved in 10 mM Tris base solution and the optical density at 510 nm measured.

Data set [3] has as its system MDA-MB-231 cells. Kind of data set: SRB cell proliferation assay, MDA-MB-231. It counts as cell-based. Particulars: Homo sapiens, read-out: GI50, MDA-MB-231. As for the experimental part:
as §1

For data set [4], the target named is T1, recombinant HDAC8 (Homo sapiens, UniProt Q9BY41).
T1 construct: purchased BPS Bioscience Corp
T1 sequence (Q9BY41 1-377): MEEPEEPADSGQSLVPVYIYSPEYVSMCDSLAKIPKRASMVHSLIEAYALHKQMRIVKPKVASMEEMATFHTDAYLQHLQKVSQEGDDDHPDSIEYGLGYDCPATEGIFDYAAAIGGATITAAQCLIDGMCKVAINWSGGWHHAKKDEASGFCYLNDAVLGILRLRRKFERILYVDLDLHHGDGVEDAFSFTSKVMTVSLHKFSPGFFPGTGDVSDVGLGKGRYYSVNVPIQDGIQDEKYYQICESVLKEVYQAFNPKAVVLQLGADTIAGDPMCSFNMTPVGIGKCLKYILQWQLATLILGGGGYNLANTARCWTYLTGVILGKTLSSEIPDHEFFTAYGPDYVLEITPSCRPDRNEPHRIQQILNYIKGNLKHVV
Kind of data set: Inhibition of recombinant HDAC enzyme activity (fluorogenic kit), HDAC8. The settings on record: mean ± SEM, read-out: IC50 HDAC8 (Class I). The class given is biochemical. The text has this:
(§2) Fluorogenic HDAC assay kits (BPS Bioscience Corp., San Diego, CA, USA) were used to assess the ability of HDAC inhibitors to inhibit deacetylation of lysine residues on the substrate by recombinant HDAC1, 2, 3, 4, 6, or 8 according to the manufacturer's instructions.

Data set [5] in a line: SRB cell proliferation assay, normal bone marrow stromal cells HS-5. It counts as cell-based. The settings on record: HS-5 normal bone marrow stromal cells, human normal bone marrow stromal cells. The method, then:
as §1

Data set [6] has as its target T2, recombinant HDAC6 (Homo sapiens, UniProt Q9UBN7).
T2 construct: purchased BPS Bioscience Corp
T2 sequence (Q9UBN7 1-1215): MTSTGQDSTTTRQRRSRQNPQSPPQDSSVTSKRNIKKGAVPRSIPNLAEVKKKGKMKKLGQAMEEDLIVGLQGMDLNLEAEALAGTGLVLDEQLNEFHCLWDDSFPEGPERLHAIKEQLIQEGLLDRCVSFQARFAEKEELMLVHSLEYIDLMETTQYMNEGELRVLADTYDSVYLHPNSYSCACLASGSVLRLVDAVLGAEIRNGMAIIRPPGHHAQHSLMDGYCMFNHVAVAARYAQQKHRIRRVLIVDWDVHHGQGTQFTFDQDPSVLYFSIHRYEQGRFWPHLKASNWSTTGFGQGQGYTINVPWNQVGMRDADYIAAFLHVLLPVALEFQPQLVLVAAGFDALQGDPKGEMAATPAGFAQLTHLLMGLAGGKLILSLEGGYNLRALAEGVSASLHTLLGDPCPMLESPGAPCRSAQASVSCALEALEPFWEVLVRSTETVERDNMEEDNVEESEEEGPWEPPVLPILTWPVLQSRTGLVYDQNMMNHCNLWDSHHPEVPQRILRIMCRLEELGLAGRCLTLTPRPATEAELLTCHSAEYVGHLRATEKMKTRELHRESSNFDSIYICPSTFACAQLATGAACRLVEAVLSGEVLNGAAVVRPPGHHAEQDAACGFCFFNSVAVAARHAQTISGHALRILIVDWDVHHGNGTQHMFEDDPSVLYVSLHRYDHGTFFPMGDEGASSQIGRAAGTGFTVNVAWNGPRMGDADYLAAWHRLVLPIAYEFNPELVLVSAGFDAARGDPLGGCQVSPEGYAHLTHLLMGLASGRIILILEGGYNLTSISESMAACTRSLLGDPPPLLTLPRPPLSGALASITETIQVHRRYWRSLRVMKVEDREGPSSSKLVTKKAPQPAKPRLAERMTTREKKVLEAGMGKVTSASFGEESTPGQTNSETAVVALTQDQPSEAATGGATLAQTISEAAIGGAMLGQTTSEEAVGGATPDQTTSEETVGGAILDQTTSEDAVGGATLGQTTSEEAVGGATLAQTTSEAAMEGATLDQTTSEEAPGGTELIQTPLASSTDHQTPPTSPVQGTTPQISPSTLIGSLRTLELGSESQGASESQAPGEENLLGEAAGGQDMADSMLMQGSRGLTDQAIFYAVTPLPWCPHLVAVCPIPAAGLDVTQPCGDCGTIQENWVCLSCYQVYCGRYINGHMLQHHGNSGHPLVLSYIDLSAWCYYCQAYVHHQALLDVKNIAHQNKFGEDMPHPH
Description: Inhibition of recombinant HDAC enzyme activity (fluorogenic kit), HDAC6. It counts as biochemical. Particulars: mean ± SEM, read-out: IC50 HDAC6 (Class IIb).
Description: as §2

Data set [7] has as its system HCT116 xenograft tumor. Kind of data set: HCT116 xenograft model. It counts as in vivo, nude mice. Particulars: 15 mg/kg. As for the experimental part: Figure 5 The effect of MPT0G157 in HCT116 xenograft model Mice bearing established HCT116 tumors (~100 mm^3) were divided into three group (n = 5) and dosed as Materials and Methods. The tumor volumes A. and body weight B. of mice were measured. Results are mean ± SEM. **p < 0.01 versus control group.
HCT116 cells were implanted subcutaneously into four week old male nude mice. When the tumors reached the average volume of 100 mm^3, the mice were randomly divided into three groups (n = 5) and then were treated with the vehicle (1% carboxymethyl cellulose + 0.5% Tween 80, 0.2 mL/mouse), MPT0G157 (15 mg/kg) by intravenously injection five on two off in the first week and intraperitoneal injection in the other weeks. The length (L) and width (W) of the tumor were measured by caliper every 3 to 4 days, and the tumor volume was calculated as L × W^2/2.

Data set [8] concerns the target T3, recombinant HDAC3 (Homo sapiens, UniProt O15379).
T3 construct: purchased BPS Bioscience Corp
Description: Inhibition of recombinant HDAC enzyme activity (fluorogenic kit), HDAC3. The settings on record: mean ± SEM, read-out: IC50 HDAC3 (Class I). It counts as biochemical.
Description: as §2

For data set [9], the system named is AsPC-1 cells. Kind of data set: SRB cell proliferation assay, AsPC-1. It counts as cell-based. The settings on record: Homo sapiens, read-out: GI50, AsPC-1. The method, then: as §1
The target in data set [10] is T4, recombinant HDAC1 (Homo sapiens, UniProt Q13547).
T4 construct: purchased BPS Bioscience Corp
Description: Inhibition of recombinant HDAC enzyme activity (fluorogenic kit), HDAC1. The class given is biochemical. The settings on record: mean ± SEM, read-out: IC50 HDAC1 (Class I).
Description: as §2

The target of data set [11] is T5, recombinant HDAC2 (Homo sapiens, UniProt Q92769).
T5 construct: purchased BPS Bioscience Corp
Kind of data set: Inhibition of recombinant HDAC enzyme activity (fluorogenic kit), HDAC2. The class given is biochemical. Particulars: mean ± SEM, read-out: IC50 HDAC2 (Class I).
Description: as §2

For data set [12], the target named is T6, recombinant HDAC4 (Homo sapiens, UniProt P56524).
T6 construct: purchased BPS Bioscience Corp
Kind of data set: Inhibition of recombinant HDAC enzyme activity (fluorogenic kit), HDAC4. It counts as biochemical. The settings on record: mean ± SEM, read-out: IC50 HDAC4 (Class IIa).
Description: as §2

For data set [13], the system named is HCT116 cells. Kind of data set: SRB cell proliferation assay, HCT116. The class given is cell-based. The settings on record: Homo sapiens, read-out: GI50, HCT116. As for the experimental part:
as §1

In data set [14] the test system is total HDAC activity in HCT116 cells. Kind of data set: Total HDAC enzymatic activity assay in treated HCT116 cells. It counts as cell-based. Particulars: Homo sapiens, read-out: HDAC inhibitory IC50 in HCT116 cells (total HDAC enzyme activity). As for the experimental part: B. HCT116 cells (1 × 10^6) treated as explained in (A), whole-cell extracts were subjected to western blotting for the indicated proteins. Quantitative analysis of acetyl-histone H3 C. and acetyl-α-tubulin D. expression in western blot were determined by ImageQuant (Molecular Dynamics, USA). E. Immunohistochemical analysis of the HDAC1, 2 and 6 expression of a tissue microarray containing normal colon tissues and tumor tissue derived from patients with colon adenocarcinoma. Scale bars are indicated. […] Total cell lysates were collected and the total HDAC enzyme activity was analyzed using HDAC activity fluorometric assay kit (Cat No. K330–100; BioVision, Milpitax, CA, USA).

Data set [15] relates to HIF-1α and VEGF expression in HCT116 cells. Description: CoCl2-induced HIF-1α / VEGF expression in HCT116 cells (western blot, RT-PCR). The class given is cell-based, human. The settings on record: 0.1 μM 24 h, then CoCl2 300 μM 4 h.
Description: D. Cells were incubated as explained in (C), the levels of hypoxia-inducible factor-1α (HIF-1α), vascular endothelial growth factor (VEGF) mRNA were measured by RT-PCR.
Total RNA was isolated from cells using TRIzol reagent (Invitrogen). Single-strand cDNA for a polymerase chain reaction (PCR) template was synthesized from 5 μg of total RNA using random primers and Moloney murine leukemia virus reverse transcriptase (Promega). […] Equal amounts (1 μg) of each reverse-transcription product were PCR-amplified using Taq polymerase and 35 cycles of 1 min at 95°C, 1 min at 58°C, and 1 min at 72°C. The amplified cDNA was run on 1% agarose gels and visualized under UV light following staining with SYBR Safe DNA gel stain (Invitrogen).
Cells (1 × 10^6) were incubated for 10 min at 4°C in lysis buffer (20 mM HEPES, pH 7.4, 2 mM EGTA, 50 mM β-glycerophosphate, 0.1% Triton X-100, 10% glycerol, 1 mM DTT, 1 μg/mL of leupeptin, 5 μg/mL of aprotinin, 1 mM phenylmethylsulfonyl fluoride, and 1 mM sodium orthovanadate), were scraped off, incubated on ice for an additional10 min, and centrifuged at 17, 000 g for 30 min at 4°C. Protein samples (80 μg) were then electrophoresed on sodium dodecyl sulfate polyacrylamide gels (SDS-PAGE) and transferred onto a nitrocellulose membrane, which was then blocked by incubation for 30 min at room temperature with 5% fat-free milk in phosphate-buffered saline (PBS). Immunoblotting was performed by overnight incubation at 4°C with primary antibodies in PBS, followed by incubation for 1 h at room temperature with HRP-conjugated secondary antibodies. Bound antibodies were measured using ECL reagent (Advansta Corp., Menlo Park, CA, USA) and exposure to photographic film.
For data set [16], the system named is matrigel-induced angiogenesis. Description: In vivo matrigel plug angiogenesis assay. Particulars: 0.1 and 1 μM in matrigel, seven days, versus control group. Also noted: species or system nude mice. An excerpt:
A. After seven days, the animals were sacrificed and the plugs were excised from the mice and photographed. Scale bar represents 0.5 cm. B. Sections of H&E, Masson's trichrome stained and CD31 stained matrigel plugs were examined by light microscopy under 200 × magnification. Scale bar = 100 μm. C. Quantification of the hemoglobin contents of matrigel plugs by spectrophotometer measured at 540 nm. Data represent the mean ± SEM. *p < 0.05 and ***p < 0.001 versus control group.
Six-week-old female nude mice were divided into four groups with three animals in each group. Mice were injected subcutaneously into the abdomens with matrigel (BD Bioscience) mixed with PBS or angiogenic factors (40 ng/ml) with/without MPT0G157 (0.1 μM and 1 μM). After seven days, the animals were sacrificed and the plugs were carefully dissected and photographed, the plugs were performed hematoxylin and eosin (H&E), Masson's trichrome stain and CD31 staining. To quantify the blood vessel formation, hemoglobin content was analyzed by Drabkin's reagent kit (Sigma Chemical, St. Louis, MO).

For data set [17], the system named is inflammatory factors NO, TNF-α, IL-6, PGE2. Also noted: method as in PMID 25113875. The settings on record: cited from earlier work.

Where two headings read alike, the source gives them in different places. Where only a bound is given, the exact number is not on record here.

T6 sequence (P56524 627-1084 limits assumed): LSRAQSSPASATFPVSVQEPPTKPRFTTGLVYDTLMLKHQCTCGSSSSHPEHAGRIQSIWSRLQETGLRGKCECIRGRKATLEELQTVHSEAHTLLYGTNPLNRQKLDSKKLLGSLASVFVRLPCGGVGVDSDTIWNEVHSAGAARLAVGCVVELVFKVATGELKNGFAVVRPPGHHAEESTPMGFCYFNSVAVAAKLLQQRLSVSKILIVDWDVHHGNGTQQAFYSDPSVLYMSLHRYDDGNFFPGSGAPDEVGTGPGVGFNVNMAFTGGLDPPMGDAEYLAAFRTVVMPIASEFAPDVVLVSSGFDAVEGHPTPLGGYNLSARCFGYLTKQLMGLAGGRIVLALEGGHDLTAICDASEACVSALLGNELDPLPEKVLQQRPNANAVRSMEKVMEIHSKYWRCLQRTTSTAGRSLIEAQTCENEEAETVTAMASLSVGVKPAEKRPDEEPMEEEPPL
T5 sequence (Q92769 whole entry): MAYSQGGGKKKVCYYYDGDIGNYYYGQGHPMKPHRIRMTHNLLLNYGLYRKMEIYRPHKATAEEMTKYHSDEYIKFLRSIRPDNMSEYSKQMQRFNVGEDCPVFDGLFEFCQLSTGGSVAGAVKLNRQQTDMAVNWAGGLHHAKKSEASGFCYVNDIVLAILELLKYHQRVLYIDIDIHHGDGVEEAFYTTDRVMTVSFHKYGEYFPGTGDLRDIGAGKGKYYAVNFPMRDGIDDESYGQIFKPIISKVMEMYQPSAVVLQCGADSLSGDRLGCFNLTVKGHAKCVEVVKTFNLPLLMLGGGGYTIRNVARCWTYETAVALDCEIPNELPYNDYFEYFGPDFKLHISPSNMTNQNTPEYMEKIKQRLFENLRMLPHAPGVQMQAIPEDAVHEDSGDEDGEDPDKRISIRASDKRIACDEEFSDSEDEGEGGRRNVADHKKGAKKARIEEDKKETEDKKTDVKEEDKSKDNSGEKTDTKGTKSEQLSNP
T4 sequence (Q13547 whole entry): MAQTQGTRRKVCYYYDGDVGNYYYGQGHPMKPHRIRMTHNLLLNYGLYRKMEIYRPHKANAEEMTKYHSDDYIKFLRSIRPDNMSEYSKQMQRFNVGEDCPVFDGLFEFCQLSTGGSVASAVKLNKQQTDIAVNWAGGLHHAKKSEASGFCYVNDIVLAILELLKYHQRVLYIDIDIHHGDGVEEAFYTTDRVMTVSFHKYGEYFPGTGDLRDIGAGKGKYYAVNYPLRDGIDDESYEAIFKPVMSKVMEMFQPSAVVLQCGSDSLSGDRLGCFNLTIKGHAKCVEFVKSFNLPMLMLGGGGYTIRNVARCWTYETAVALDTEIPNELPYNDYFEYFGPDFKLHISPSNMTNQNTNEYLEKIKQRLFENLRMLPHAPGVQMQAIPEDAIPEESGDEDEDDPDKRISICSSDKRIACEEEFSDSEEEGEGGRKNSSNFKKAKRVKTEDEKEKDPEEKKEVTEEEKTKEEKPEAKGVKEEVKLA
T3 sequence (O15379 whole entry): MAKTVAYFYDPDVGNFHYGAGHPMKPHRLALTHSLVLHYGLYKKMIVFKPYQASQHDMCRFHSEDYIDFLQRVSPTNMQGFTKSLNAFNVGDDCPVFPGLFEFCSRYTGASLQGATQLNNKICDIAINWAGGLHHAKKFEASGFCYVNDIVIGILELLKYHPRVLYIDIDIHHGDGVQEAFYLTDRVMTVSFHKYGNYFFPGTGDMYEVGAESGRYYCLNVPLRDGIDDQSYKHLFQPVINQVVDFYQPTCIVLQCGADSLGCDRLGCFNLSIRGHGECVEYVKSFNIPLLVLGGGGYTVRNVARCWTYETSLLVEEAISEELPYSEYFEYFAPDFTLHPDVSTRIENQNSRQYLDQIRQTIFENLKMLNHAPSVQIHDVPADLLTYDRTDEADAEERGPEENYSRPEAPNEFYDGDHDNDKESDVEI
T3 sequence (Q9Y618 395-489 partner limits assumed): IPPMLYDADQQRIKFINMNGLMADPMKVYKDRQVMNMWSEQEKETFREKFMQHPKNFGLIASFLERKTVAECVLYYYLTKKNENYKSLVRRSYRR

`Cc1[nH]c2ccccc2c1CCNS(=O)(=O)c1ccc(C=CC(=O)NO)cc1` [MPT0G157, N-hydroxy-3-{4-[2-(2-methyl-1H-indol-3-yl)-ethylsulfamoyl]-phenyl}-acrylamide]: the IC50 in data set [1] (HeLa nuclear extract as the HDAC source, read-out: IC50 for inhibition of HDAC activity) is 2.8 ± 0.2 nM; in [4], more than 1000 nM; in [6], 14.3 ± 0.77 nM; in data set [8], 9.36 ± 0.7 nM; in [10] it was 7.69 ± 1.84 nM; in data set [11], 5.13 ± 0.67 nM. Also, the IC50 was more than 1000 nM in data set [12] and 470 ± 140 nM in [14] (HCT-116, HCT116 cells treated 24 h). Also, in data set [1] (compared with PXD101), the “HDAC inhibition, fold compared with PXD101” value is 9.4 fold. Also, the GI50 is 307 ± 36 nM in [2] (A549, SRB assay, 48 h); 47 ± 7 nM in [3] (MDA-MB-231, SRB assay, 48 h); 103 ± 17 nM in data set [9] (ASPC1, SRB assay, 48 h); 29 ± 2 nM in data set [13] (HCT-116, SRB assay, 48 h). For the same compound, the GI50 at 48 h in [5] was more than 100000 nM. The “body weight loss during treatment” value in data set [7] (HCT116 xenograft mice) is given as “no significant differences in weight loss”. Also, in data set [7] (i.v. first week then i.p., nude mice with HCT116 tumors), the “percent of tumor growth inhibition (TGI)” value is 50.7%. Also, the “CoCl2-induced HIF-1α protein expression” value in data set [15] (HCT116) is “markedly inhibited”. Moreover, the “CoCl2-induced VEGF mRNA expression” value in data set [15] (HCT116, RT-PCR) is listed as “markedly inhibited”. Also, the “HIF-1α mRNA levels” value in data set [15] (HCT116, RT-PCR) is listed as “did not reduce”. Further, the “angiogenic response (hemoglobin content of matrigel plugs)” value in data set [16] is “significantly suppressed the angiogenic response”. In addition, the “suppression of inflammatory factor activities, fold compared with PXD101” value in data set [17] is recorded as 3.0–25.1 fold.
As for `O=C(/C=C/c1cccc(S(=O)(=O)Nc2ccccc2)c1)NO` [PXD101, reference compound], the GI50 in [2] (A549, 48 h) was more than 1000 nM; in data set [3] (MDA-MB-231, 48 h), 241 ± 2 nM; in data set [9] (ASPC1, 48 h), more than 1000 nM; in data set [13] (HCT-116, 48 h), 90 ± 12 nM. The 50% inhibitory concentration (IC50) in data set [6] was 80.3 ± 8.69 nM; in data set [12], 161 ± 2.36 nM; in [14] (HCT-116, 24 h) it was 10300 ± 2250 nM.
`O=C(CCCCCCC(=O)Nc1ccccc1)NO` [SAHA]: the GI50 is more than 1000 nM in data set [2] (A549, 48 h); 745 ± 43 nM in data set [3] (MDA-MB-231, 48 h); more than 1000 nM in [9] (ASPC1, 48 h); 411 ± 37 nM in data set [13] (HCT-116, 48 h).
